The values below come from patent publication US12378234B2, “Crystalline polymorphs of a 1-thiazol-2-yl-pyrazole-5-carboxylic acid derivative” (Bantam Pharmaceutical, LLC, priority 2019, dated 2025).

What all share (format): physicochemical
A short description of data set [1]: Form stability on drying, checked by XRPD. The note with it: for change to the polymorph during drying (XRPD): wet solids vacuum-dried at 50° C. for 2 hours; for form stability upon drying under ambient condition (XRPD): solids isolated from slurry. How it is done:
Crystalline polymorph Form 1 (20 mg) was suspended in 0.2-0.9 mL of methyl tert-butyl ether (MTBE). The resulting slurry was stirred at room temperature for 4 days, after which the remaining solids were isolated and subjected to XRPD.
Crystalline polymorph Form 1 (20 mg) was suspended in 0.2-0.9 mL of tetrahydrofurane:H2O (1:9 v:v). The resulting slurry was stirred at room temperature for 4 days, after which the remaining solids were isolated and subjected to XRPD.
A solution of crystalline polymorph Form 1 (20 mg in 0.3 mL) was mixed with 0.3 mL a solution of KOH in ethyl acetate (1:1 molar ratio of KOH:Form 1), and then stirred for 2 to 5 days at room temperature. The solids were isolated and subjected to XRPD. The wet solids were also vacuum-dried at 50° C. for 2 hours, and then subjected to XRPD. […] This crystalline polymorph was also characterized by TGA, DSC, and PLM. […] Based on the results, Form 9 was considered to be a hydrate or a solvate.
X-Ray Powder Diffraction was obtained by standard techniques using Panalytical X'Pert3 Powder XRPD on a Si zero-background holder operating with a Cu Kα radiation source at 45 kV, 40 mA (Kα1 (Å): 1.540598, Kα2 (Å): 1.544426, Kα2/Kα1 intensity ratio: 0.50). The 2θ position was calibrated against Panalytical Si reference standard disc. The scanning parameters ranged from 3 to 40° 2θ (±0.0131°) and a continuous scan at a rate of about 0.04° 2θ/minute.

The nature of data set [2]: Slurry conversion (competitive) experiments for thermodynamic stability relationship. The note with it: for pH of solution: 2.5 mg in 1 mL of 4% dichloromethane. The procedure: To determine the thermodynamic stability relationship between Form 1 and Form 5, slurry conversion experiments were conducted. Specifically, Form 1 sample was added to 1.0 mL H2O:acetone (9:1 v:v) or 0.8 mL of H2O:ethanol (3:1 v:v) at room temperature. After equilibrium for 1 hr, the suspensions were filtered to obtain a saturated solution Form 1. To each saturated solution of Form 1:Form 5 (1:1) was added. After stirring at room temperature for 2 or 3 days, the solids were isolated for XRPD analysis.
To determine the thermodynamic stability relationship between Form 11 and Form 12, slurry conversion experiments were conducted. Specifically, Form 12 (2.5 mg) was added to 1.0 mL of 4% dichloromethane at room temperature. After equilibrium for 1 hour, the suspensions were filtered to obtain a saturated solution Form 12. To the saturated solution of Form 11:Form 12 (1:1) was added. After stirring at room temperature for 30 minutes, the solids were isolated for XRPD analysis. […] The pH of Form 11 solution (2.5 mg in 1 mL of 4% dichloromethane) and Form 12 solution (2.5 mg in 1 mL of 4% dichloromethane) was measured to be 8.25 and 7.98, respectively.

Data set [3] is described as follows: Solubility of crystalline polymorph in biologically relevant media (water, SGF, FaSSIF, FeSSIF), HPLC of supernatant, pH, XRPD of remaining solids. To be noted: for solubility at 1 h / solubility at 4 h / solubility at 24 h: thermodynamic from solid, 37° C.; for pH: solubility test. The procedure: The solubility of crystalline polymorph Form 1 was tested in biologically relevant media: water, simulated gastric fluid (SGF), fasted state simulated intestinal fluid (FaSSIF) and fed state simulated intestinal fluid (FeSSIF). For example, the crystalline polymorph was suspended in the solvent with stirring at 400 rpm at 37° C. for 1 h, 4 h and 24 h followed by filtration. The supernatant concentration was measured by HPLC (Mobile phase A: 0.1% NH3 in H2O, Mobile phase B: acetonitrile; flow rate: 0.8 mL/min; injection volume: 5 μL). The remaining solids were tested by XRPD.
The solubility of crystalline polymorph Form 11 was tested in biologically relevant media: water, SGF, FaSSIF, and FeSSIF. For example, the crystalline polymorph was suspended in the solvent with stirring at 400 rpm at 37° C. for 1 h, 4 h and 24 h followed by filtration. The supernatant was measured by HPLC for concentration and the remaining solids were tested by XRPD.

What is called solubility is the concentration that dissolves in the medium under given conditions. Read a high solubility as much dissolved substance.

As for `Cc1nn(-c2nc(C3=CCC(C(F)(F)F)CC3)c(SC(C)C)s2)c(C(=O)[O-])c1-c1cccc(F)c1.[K+]` (centres unmarked) [Form 10, potassium 4-(3-fluorophenyl)-1-(5-(isopropylthio)-4-(4-(trifluoromethyl)cyclohex-1-en-1-yl)thiazol-2-yl)-3-methyl-1H-pyrazole-5-carboxylate], the “change to the polymorph during drying (XRPD)” value (from here on “change … (XRPD)”) in data set [1] is listed as “no change to the polymorph was observed”.
On the same count and under the same terms, with `Cc1nn(-c2nc(C3=CCC(C(F)(F)F)CC3)c(SC(C)C)s2)c(C(=O)[O-])c1-c1cccc(F)c1.[K+]` (centres unmarked) [Form 9, potassium 4-(3-fluorophenyl)-1-(5-(isopropylthio)-4-(4-(trifluoromethyl)cyclohex-1-en-1-yl)thiazol-2-yl)-3-methyl-1H-pyrazole-5-carboxylate] the entry was “no change to the polymorph was observed”; with `Cc1nn(-c2nc(C3=CCC(C(F)(F)F)CC3)c(SC(C)C)s2)c(C(=O)O)c1-c1cccc(F)c1.NC(N)=O` (centres unmarked) [Form 15, urea 4-(3-fluorophenyl)-1-(5-(isopropylthio)-4-(4-(trifluoromethyl)cyclohex-1-en-1-yl)thiazol-2-yl)-3-methyl-1H-pyrazole-5-carboxylate], “no change to the polymorph was observed”.
The same measure, in the same setting: in the case of “magnesium 4-(3-fluorophenyl)-1-(5-(isopropylthio)-4-(4-(trifluoromethyl)cyclohex-1-en-1-yl)thiazol-2-yl)-3-methyl-1H-pyrazole-5-carboxylate [Form 14]” it was “no change to the polymorph was observed”.
For `Cc1nn(-c2nc(C3=CCC(C(F)(F)F)CC3)c(SC(C)C)s2)c(C(=O)O)c1-c1cccc(F)c1.N=C(N)NCCCC(N)C(=O)O` [Form 13, L-arginine 4-(3-fluorophenyl)-1-(5-(isopropylthio)-4-(4-(trifluoromethyl)cyclohex-1-en-1-yl)thiazol-2-yl)-3-methyl-1H-pyrazole-5-carboxylate], the “change … (XRPD)” value in data set [1] is on record as “no change to the polymorph was observed”.
`Cc1nn(-c2nc(C3=CCC(C(F)(F)F)CC3)c(SC(C)C)s2)c(C(=O)[O-])c1-c1cccc(F)c1.[Na+]` (centres unmarked) [Form 12, sodium 4-(3-fluorophenyl)-1-(5-(isopropylthio)-4-(4-(trifluoromethyl)cyclohex-1-en-1-yl)thiazol-2-yl)-3-methyl-1H-pyrazole-5-carboxylate]: the “change … (XRPD)” value in data set [1] is reported as “no change to the polymorph was observed”. In data set [2], this compound returned a pH of solution of 7.98.
For `Cc1nn(-c2nc(C3=CCC(C(F)(F)F)CC3)c(SC(C)C)s2)c(C(=O)O)c1-c1cccc(F)c1` (centres unmarked) [Form 8, 4-(3-fluorophenyl)-1-(5-(isopropylthio)-4-(4-(trifluoromethyl)cyclohex-1-en-1-yl)thiazol-2-yl)-3-methyl-1H-pyrazole-5-carboxylic acid], the “form stability upon drying under ambient condition (XRPD)” value in data set [1] was “metastable and partially converted to Form 1”.
Same read-out and setting: in the case of `Cc1nn(-c2nc(C3=CCC(C(F)(F)F)CC3)c(SC(C)C)s2)c(C(=O)O)c1-c1cccc(F)c1` (centres unmarked) [Form 2, 4-(3-fluorophenyl)-1-(5-(isopropylthio)-4-(4-(trifluoromethyl)cyclohex-1-en-1-yl)thiazol-2-yl)-3-methyl-1H-pyrazole-5-carboxylic acid] it was “metastable and partially converted to Form 1”.
As for `Cc1nn(-c2nc(C3=CCC(C(F)(F)F)CC3)c(SC(C)C)s2)c(C(=O)O)c1-c1cccc(F)c1.O=C(O)C1CCCN1` [Form 16, L-proline 4-(3-fluorophenyl)-1-(5-(isopropylthio)-4-(4-(trifluoromethyl)cyclohex-1-en-1-yl)thiazol-2-yl)-3-methyl-1H-pyrazole-5-carboxylate], the “change … (XRPD)” value in data set [1] is “no change to the polymorph was observed”.
On to `Cc1nn(-c2nc(C3=CCC(C(F)(F)F)CC3)c(SC(C)C)s2)c(C(=O)[O-])c1-c1cccc(F)c1.[Na+]` (centres unmarked) [Form 11, sodium 4-(3-fluorophenyl)-1-(5-(isopropylthio)-4-(4-(trifluoromethyl)cyclohex-1-en-1-yl)thiazol-2-yl)-3-methyl-1H-pyrazole-5-carboxylate], for which, in data set [1], the “change … (XRPD)” value was “no change to the polymorph was observed”. Moreover, the “Form change by XRPD of remaining solids” value in data set [3] (after solubility test in FaSSIF) is on record as “no form change was observed”; in data set [3] (after solubility test in FeSSIF), “converted to Form 1”; in data set [3] (after solubility test in SGF), “converted to Form 1”; in data set [3] (after solubility test in water), “no form change was observed”. Also, the solubility at 1 h in data set [3] (fasted state simulated intestinal fluid (FaSSIF), FaSSIF, 1 hr) was 100 µg/mL; in data set [3] (fed state simulated intestinal fluid (FeSSIF), FeSSIF, 1 hr) it was 200 µg/mL; in data set [3] (simulated gastric fluid (SGF), simulated gastric fluid, SGF, 1 hr), 40 µg/mL; in data set [3] (water, H2O, 1 hr), 1400 µg/mL. Further, the solubility at 4 h in data set [3] (fasted state simulated intestinal fluid (FaSSIF), FaSSIF, 4 hr) is 100 µg/mL; in data set [3] (fed state simulated intestinal fluid (FeSSIF), FeSSIF, 4 hr) it was 300 µg/mL; in data set [3] (simulated gastric fluid (SGF), simulated gastric fluid, SGF, 4 hr) it was 100 µg/mL; in data set [3] (water, H2O, 4 hr) it was 1300 µg/mL. In addition, the solubility at 24 h in data set [3] (fasted state simulated intestinal fluid (FaSSIF), FaSSIF, 24 hr) was 200 µg/mL; in data set [3] (fed state simulated intestinal fluid (FeSSIF), FeSSIF, 24 hr), 400 µg/mL; in data set [3] (simulated gastric fluid (SGF), simulated gastric fluid, SGF, 24 hr) it was 300 µg/mL; in data set [3] (water, H2O, 24 hr), 1200 µg/mL. Also, the pH in data set [3] (FaSSIF, 1 hr) is given as 6.48; in data set [3] (FaSSIF, 4 hr), 6.45; in data set [3] (FaSSIF, 24 hr) it was 6.56; in data set [3] (FeSSIF, 1 hr) it was 5.19; in data set [3] (FeSSIF, 4 hr), 5.28; in data set [3] (FeSSIF, 24 hr) it was 5.32. Moreover, the pH in data set [3] (H2O, 1 hr) is 9.67; in data set [3] (H2O, 4 hr), 9.31; in data set [3] (H2O, 24 hr), 9.17; in data set [3] (SGF, 1 hr), 2.12; in data set [3] (SGF, 4 hr), 2.55; in data set [3] (SGF, 24 hr) it was 6.81. Moreover, the pH of solution in data set [2] is on record as 8.25. Further, in data set [2] (slurry of Form 11:Form 12 (1:1) in 4% dichloromethane, room temperature, 30 minutes), the “thermodynamic stability relationship between Form 11 and Form 12” value is recorded as “more thermodynamically stable than Form 12”.
